One compound from patent publication US8063033B2, “Therapeutic beta-lactams” (Allergan, Inc., priority 2008, dated 2011) can be followed below.

The test system of this experiment is lashes and adjacent hairs of patients. The experiment can be described thus: Observation of eyelash/hair growth in glaucoma patients treated in one eye. The format is in vivo, human. To be noted: glaucoma patient treated in one eye only. An excerpt:
In the course of treating patients having glaucoma, treatment may only be appropriate in one eye. […] The lash appearance on the lids of the treated eyes would have appeared quite attractive if it represented a bilateral phenomenon. As a result of its asymmetric nature, the long lashes on one side could be construed as disturbing from a cosmetic standpoint. A systemic examination was preformed as a result of the asymmetric phenomenon. It soon became apparent that this altered appearance was not an isolated finding. […] Definite differences could be identified to varying degrees in the lashes and adjacent hairs of all patients who were taking the drug on a unilateral basis for longer than 6 months.
The changes in the lashes were apparent on gross inspection in several patients once attention was focused on the issue. In those with light colored hair and lashes, the differences were only seen easily with the aid of the high magnification and lighting capabilities of the slit lamp biomicroscope. In the course of glaucoma follow-up examination, attention is generally immediately focused on the eye itself. As a result of the high power magnification needed only one eye is seen at a time and the eye is seen at a high enough power that the lashes are not in focus. […]

Take `CCNC(=O)CCC/C=C\C[C@@H]1[C@@H](/C=C/[C@@H](O)CCc2ccccc2)[C@H](O)C[C@@H]1O` [bimatoprost]: the “lash appearance in treated eye versus non-treated eye” value is “longer, thicker, and fuller”.
